**Q.** Which melting point does the source give for COc1ncccc1Nc1c(NC(NC(=O)c2cccc(C)c2)C(C)(C)Cc2ccccc2)c(=O)c1=O (stereo not drawn) [Example 83, N-[1-({2-[(2-Methoxypyridin-3-yl)amino]-3,4-dioxo-1-cyclobuten-1-yl}amino)-2,2-dimethyl-3-phenylpropyl]-3-methylbenzamide] here?
**A.** 233 to 235 °C

**Q.** For CC(C)(C)C(NC(=O)c1cccc(Cl)c1)Nc1c(Nc2cccnc2Cl)c(=O)c1=O (stereo not drawn) [Example 95, 3-Chloro-N-[1-({2-[(2-chloropyridin-3-yl)amino]-3,4-dioxo-1-cyclobuten-1-yl}amino)-2,2-dimethylpropyl]benzamide], which melting point is on record?
**A.** 213 to 214 °C

**Q.** Which melting point does the source give for CC(C)(C)C(NC(=O)c1cc(F)cc(F)c1)Nc1c(Nc2cccnc2Cl)c(=O)c1=O (stereo not drawn) [Example 110A, N-(1-{[3,4-Dioxo-2-(2-chloro3-pyridinylamino)-1-cyclobuten-1-yl]amino}-2,2-dimethylpropyl)-3,5-difluorobenzamide] here?
**A.** 215 to 217 °C
